# Measured values reported in patent US12661316B2, “Creatine and/or creatinine compositions and related methods” (ThermoLife International, LLC, priority 2018, dated 2026).
# Read-outs that look alike come from different tables or passages of the source.
# Legend:
# [1] = cited from earlier work
# [2] = Chemical stability of creatine nitrate, creatine monohydrate and buffered creatine in pH 2.5 and pH 6.8 buffer; conditions: for pH of samples, initial: start of 12 days; for pH of samples, final: within a period of 12 days; for degradation rate constant: about 10 mg/ml
# Protocol: The chemical stability of creatine nitrate (CN), creatine monohydrate (CM), and buffered creatine (BC) were examined under two different storage conditions: (1) 37° C. in pH 2.5 buffer and (2) 40° C. in pH 6.8 buffer. A concentration of about 10 mg/ml of CN, CM and BC were prepared in both pH 2.5 and pH 6.8 buffer and stored in stability chambers in screw capped bottles at 37° C. and 40° C., respectively.
# [3] = Human study: side effects, liver and kidney function (Example 7); assay type: in vivo
# [4] = dosages up to 30 g for a few days; human subject; cited from earlier work
# [5] = cited from earlier work; for creatine degraded: three days of storage at 25° C.
# [6] = radiokinetic bioavailability study; cited from earlier work
# [7] = with caffeine intake; cited from earlier work
# [8] = normal human volunteers who had ingested creatinine; cited from earlier work
# [9] = dogs; cited from earlier work
# [10] = tested on: human blood cells; conditions: addition of creatinine to human blood cells; cited from earlier work
# [11] = injection of creatinine; mice; cited from earlier work
compound,measurement,setting,value
"CN(CC(=O)O)C(=N)N.O [CM, creatine monohydrate]",degradation in solution,[1]; refrigerated,slowed the rate of degradation
same,degradation in solution,[1]; stored at room temperature,degraded into creatinine within several days
same,"pH of samples, initial",[2]; 37° C. in pH 2.5 buffer,3.08±0.01
same,"pH of samples, final",[2]; 37° C. in pH 2.5 buffer,4.12±0.01
same,negative side effects (side effect reporting questionnaire),[3]; in vivo,one subject reported gastrointestinal disturbances
same,increase of total creatine content in skeletal muscles,[4],more than 20%
"CN(CC(=O)O)C(=N)N.O=[N+]([O-])O [CN, creatine nitrate]",degradation rate constant,[2]; 37° C. in pH 2.5 buffer,0.075±0.001 per day
same,degradation rate constant,[2]; 40° C. in pH 6.8 buffer,0.115±0.001 per day
same,"pH of samples, initial",[2]; 40° C. in pH 6.8 buffer,2.83±0.01
same,"pH of samples, final",[2]; 40° C. in pH 6.8 buffer,4.31±0.01
same,negative side effects (side effect reporting questionnaire),"[3]; ten human volunteers, nine did not report any negative side effects",one subject reported gastrointestinal disturbances
CN(CC(=O)O)C(=N)N [creatine],stability in solution,[5]; neutral pH (7.5 or 6.5),relatively stable
same,creatine degraded,[5]; pH 3.5,21%
same,creatine degraded,[5]; pH 4.5,12%
same,creatine degraded,[5]; pH 5.5,4%
same,creatine bioavailability,[6],sharply reduced with increasing doses
same,ergogenic effect on muscle,[7],completely eliminated
CN1CC(=O)NC1=N [creatinine],red cell lysis,[8],same red cell lysing pattern
same,erythrocyte survival time,[9],significant decrease
same,spontaneous hemolysis,[10],significant increase in spontaneous hemolysis
same,behavioural effect,[11],sedating or stupefying effect
